Read-outs that look alike come from different tables or passages of the source.
Legend:
ER in MCF-7 cells = ER in MCF-7 cells (Homo sapiens (Human), UniProt P03372); assay: In-cell Western (ICW) ER degradation assay in MCF-7 cells; assay type: cell-based; settings: for DC50: MCF-7, ER degradation, read-out: MCF7 DC50
MCF-7 cells = assay: CellTiter-Glo (CTG) cell proliferation assay in MCF-7 cells; assay type: cell-based; settings: Homo sapiens, MCF7, 144 h, MCF-7 cell proliferation, Day 6
From the text: CellTiter-Glo® (CTG) Assays in MCF-7 and T47D Cell Lines.
In vitro Assay: MCF-7 and T47D CTG assay

[1] = MCF7, read-out: MCF7 Dmax, MCF-7, maximal ER degradation, 16 hrs treatment
[2] = MCF7, MCF-7, maximal ER degradation, 16 hrs treatment, read-out: MCF7 Dmax

ER in MCF-7 cells, sequence (P03372 whole entry): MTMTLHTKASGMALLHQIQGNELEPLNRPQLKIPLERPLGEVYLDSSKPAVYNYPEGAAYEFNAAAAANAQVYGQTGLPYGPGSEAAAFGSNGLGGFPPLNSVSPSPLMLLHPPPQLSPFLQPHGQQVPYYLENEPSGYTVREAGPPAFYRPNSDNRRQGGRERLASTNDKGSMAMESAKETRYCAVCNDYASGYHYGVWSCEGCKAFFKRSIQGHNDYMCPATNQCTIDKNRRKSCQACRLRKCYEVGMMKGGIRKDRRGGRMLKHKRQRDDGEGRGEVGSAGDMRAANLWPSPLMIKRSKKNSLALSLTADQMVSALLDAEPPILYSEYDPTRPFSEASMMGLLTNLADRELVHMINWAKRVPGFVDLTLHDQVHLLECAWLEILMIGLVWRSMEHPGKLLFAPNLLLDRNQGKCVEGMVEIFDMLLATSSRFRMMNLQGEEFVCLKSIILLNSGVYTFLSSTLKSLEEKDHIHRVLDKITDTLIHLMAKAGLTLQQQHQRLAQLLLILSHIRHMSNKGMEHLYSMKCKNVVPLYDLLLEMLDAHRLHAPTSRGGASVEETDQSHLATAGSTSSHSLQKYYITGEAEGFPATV

Dmax (ER in MCF-7 cells; [2])	Structure (SMILES)	Dmax (ER in MCF-7 cells; [1])	DC50 (ER in MCF-7 cells; 16 hrs treatment)	IC50 (MCF-7 cells)
–	COc1cc(N2CCC3(CC[C@@H](CN4CCC5(CC4)COc4c5cc(C)c5c4CN([C@H]4CCC(=O)NC4=O)C5=O)CO3)CC2)c(F)cc1[C@@H]1c2ccc(O)cc2CC[C@@H]1c1ccccc1 [Compound A227, (S)-3-(1′-(((S)-9-(2-fluoro-4-((1S,2S)-6-hydroxy-2-phenyl-1,2,3,4-tetrahydronaphthalen-1-yl)-5-methoxyphenyl)-1-oxa-9-azaspiro[5.5]undecan-3-yl)methyl)-5-methyl-6-oxo-6,8-dihydro-2H,7H-spiro[furo[2,3-e]isoindole-3,4′-piperidin]-7-yl)piperidine-2,6-dione]	> 75%	< 1 nM	< 10 nM
–	Cc1cc2c(c3c1C(=O)N([C@H]1CCC(=O)NC1=O)C3)OCC21CCN(C[C@H]2CCC3(CCN(c4ccc([C@@H]5c6ccc(O)cc6CC[C@@H]5c5ccccc5)cc4)CC3)OC2)CC1 [Compound A210, (S)-3-(1′-(((R)-9-(4-((1R,2S)-6-hydroxy-2-phenyl-1,2,3,4-tetrahydronaphthalen-1-yl)phenyl)-1-oxa-9-azaspiro[5.5]undecan-3-yl)methyl)-5-methyl-6-oxo-6,8-dihydro-2H,7H-spiro[furo[2,3-e]isoindole-3,4′-piperidin]-7-yl)piperidine-2,6-dione]	> 75%	< 1 nM	< 10 nM
> 75%	COc1c([C@@H]2c3ccc(O)cc3CC[C@@H]2c2ccccc2)ccc(N2CCC3(CC2)CC(CN2CCN4c5cc6c(cc5OC[C@@H]4C2)C(=O)N([C@H]2CCC(=O)NC2=O)C6)C3)c1F [Compound A197, (S)-3-((S)-3-((7-(2-fluoro-4-((1S,2S)-6-hydroxy-2-phenyl-1,2,3,4-tetrahydronaphthalen-1-yl)-3-methoxyphenyl)-7-aza-spiro[3.5]nonan-2-yl)methyl)-8-oxo-1,2,3,4,4a,5,8,10-octa-hydro-9H-pyrazino[1′,2′:4,5] [1,4]oxazino[2,3-f]isoindol-9-yl)piperidine-2,6-dione]	–	< 1 nM	10 to 100 nM
> 75%	COc1cc(N2CC3(CC(CN4CCN5c6ccc7c(c6OC[C@H]5C4)CN([C@H]4CCC(=O)NC4=O)C7=O)C3)C2)c(F)cc1[C@@H]1c2ccc(O)cc2CC[C@@H]1c1ccccc1 [Compound A185, (S)-3-((R)-7-((2-(2-fluoro-4-((1S,2S)-6-hydroxy-2-phenyl-1,2,3,4-tetrahydronaphthalen-1-yl)-5-methoxyphenyl)-2-aza-spiro[3.3]heptan-6-yl)methyl)-1-oxo-1,3,5,5a,6,7,8,9-octa-hydro-2H-pyrazino[1′,2′:4,5] [1,4]oxazino[2,3-e]isoindol-2-yl)piperidine-2,6-dione]	–	< 1 nM	> 100 nM
–	COC1(CCN2CCC3(CC2)COc2c3ccc3c2CN([C@H]2CCC(=O)NC2=O)C3=O)CCN(c2ccc([C@@H]3c4ccc(O)cc4CC[C@@H]3c3ccccc3)cc2)CC1 [Compound A193, (S)-3-(1′-(2-(1-(4-((1R,2S)-6-hydroxy-2-phenyl-1,2,3,4-tetra-hydronaphthalen-1-yl)phenyl)-4-methoxypiperidin-4-yl)-ethyl)-6-oxo-6,8-dihydro-2H, 7H-spiro[furo[2,3-e]isoindole-3,4′-piperidin]-7-yl)piperidine-2,6-dione]	> 75%	< 1 nM	10 to 100 nM
–	COc1cc(N2CCC3(CC2)CC(CN2CCC4(CC2)COc2c4cc(Cl)c4c2CN([C@H]2CCC(=O)NC2=O)C4=O)C3)c(F)cc1[C@@H]1c2ccc(O)cc2CC[C@@H]1c1ccccc1 [Compound A200, (S)-3-(5-chloro-1′-((7-(2-fluoro-4-((1S,2S)-6-hydroxy-2-phenyl-1,2,3,4-tetrahydro-naphthalen-1-yl)-5-methoxy-phenyl)-7-azaspiro[3.5]nonan-2-yl)methyl)-6-oxo-6,8-dihydro-2H,7H-spiro[furo[2,3-e]isoindole-3,4′-piperidin]-7-yl)piperidine-2,6-dione]	> 75%	< 1 nM	< 10 nM
> 75%	COc1cc(N2CCC(CCN3CCN4c5ccc6c(c5OC[C@H]4C3)CN([C@H]3CCC(=O)NC3=O)C6=O)CC2)c(F)cc1[C@@H]1c2ccc(O)cc2CC[C@@H]1c1ccccc1 [Compound A180, (S)-3-((R)-7-(2-(1-(2-fluoro-4-((1S,2S)-6-hydroxy-2-phenyl-1,2,3,4-tetrahydronaphthalen-1-yl)-5-methoxyphenyl)piper-idin-4-yl)ethyl)-1-oxo-1,3,5,5a, 6,7,8,9-octahydro-2H-pyrazino [1′,2′:4,5][1,4]oxazino[2,3-e]isoindol-2-yl)piperidine-2,6-dione]	–	< 1 nM	> 100 nM
–	O=C1CC[C@H](N2Cc3c(ccc4c3OCC43CCN(CC4CC5(CCN(c6cnc(C7c8ccc(O)cc8CCC7c7ccccc7)cn6)CC5)C4)CC3)C2=O)C(=O)N1 (stereo partly drawn) [Compound A201, (3S)-3-(1′-((7-(5-(6-hydroxy-2-phenyl-1,2,3,4-tetrahydro-naphthalen-1-yl)pyrazin-2-yl)-7-azaspiro[3.5]nonan-2-yl)-methyl)-6-oxo-6,8-dihydro-2H, 7H-spiro[furo[2,3-e]isoindole-3,4′-piperidin]-7-yl)piperidine-2,6-dione]	50 to 75%	< 1 nM	> 100 nM
–	COc1cc(N2CCC3(CC2)CC(CN2CCC4(CC2)COc2c4cc4c(c2Cl)C(=O)N([C@H]2CCC(=O)NC2=O)C4)C3)c(F)cc1[C@@H]1c2ccc(O)cc2CC[C@@H]1c1ccccc1 [Compound A218, (S)-3-(8-chloro-1′-((7-(2-fluoro-4-((1S,2S)-6-hydroxy-2-phenyl-1,2,3,4-tetrahydro-naphthalen-1-yl)-5-methoxy-phenyl)-7-azaspiro[3.5]nonan-2-yl)methyl)-7-oxo-5,7-dihydro-2H,6H-spiro[furo[2,3-f]isoindole-3,4′-piperidin]-6-yl)piperidine-2,6-dione]	> 75%	< 1 nM	< 10 nM
50 to 75%	COc1cc(N2CC(CCN3CCN4c5ccc6c(c5OC[C@H]4C3)CN([C@H]3CCC(=O)NC3=O)C6=O)C2)c(F)cc1[C@@H]1c2ccc(O)cc2CC[C@@H]1c1ccccc1 [Compound A204, (S)-3-((R)-7-(2-(1-(2-fluoro-4-((1S,2S)-6-hydroxy-2-phenyl-1,2,3,4-tetrahydronaphthalen-1-yl)-5-methoxyphenyl)azet-idin-3-yl)ethyl)-1-oxo-1,3,5,5a, 6,7,8,9-octahydro-2H-pyrazino [1′,2′:4,5][1,4]oxazino[2,3-e]isoindol-2-yl)piperidine-2,6-dione]	–	1 to 10 nM	> 100 nM
–	O=C1CC[C@H](N2Cc3cc4c(cc3C2=O)OCC42CCN(CC3CCC4(CC3)CN(c3ccc([C@@H]5c6ccc(O)cc6CC[C@@H]5c5ccccc5)cc3)C4)CC2)C(=O)N1 [Compound A178, (S)-3-(1′-((2-(4-((1R,2S)-6-hydroxy-2-phenyl-1,2,3,4-tetra-hydronaphthalen-1-yl)phenyl)-2-azaspiro[3.5]nonan-7-yl)-methyl)-7-oxo-5,7-dihydro-2H, 6H-spiro[furo[2,3-f]isoindole-3,4′-piperidin]-6-yl)piperidine-2,6-dione]	> 75%	< 1 nM	> 100 nM
–	COc1cc(N2CCC3(CC[C@H](CN4CCC5(CC4)COc4c5cc(Cl)c5c4CN([C@H]4CCC(=O)NC4=O)C5=O)CO3)CC2)c(F)cc1[C@@H]1c2ccc(O)cc2CC[C@@H]1c1ccccc1 [Compound A232, (S)-3-(5-chloro-1′-(((R)-9-(2-fluoro-4-((1S,2S)-6-hydroxy-2-phenyl-1,2,3,4-tetrahydronaphthalen-1-yl)-5-methoxyphenyl)-1-oxa-9-azaspiro[5.5]undecan-3-yl)methyl)-6-oxo-6,8-dihydro-2H,7H-spiro[furo[2,3-e]isoindole-3,4′-piperidin]-7-yl)piperidine-2,6-dione]	> 75%	< 1 nM	< 10 nM
–	O=C1CC[C@H](N2Cc3c4c(cc(Cl)c3C2=O)C2(CCN(C[C@H]3CCC5(CCN(c6ccc([C@@H]7c8ccc(O)cc8CC[C@@H]7c7ccccc7)cc6)CC5)OC3)CC2)CO4)C(=O)N1 [Compound A231, (S)-3-(5-chloro-1′-(((R)-9-(4-((1R,2S)-6-hydroxy-2-phenyl-1,2,3,4-tetrahydronaphthalen-1-yl)phenyl)-1-oxa-9-azaspiro[5.5]undecan-3-yl)methyl)-6-oxo-6,8-dihydro-2H,7H-spiro[furo[2,3-e]isoindole-3,4′-pipcridin]-7-yl)piperidine-2,6-dione]	> 75%	< 1 nM	< 10 nM
> 75%	COc1c([C@@H]2c3ccc(O)cc3CC[C@@H]2c2ccccc2)ccc(N2CCC3(CC2)CC(CN2CCN4c5ccc6c(c5OC[C@H]4C2)CN([C@H]2CCC(=O)NC2=O)C6=O)C3)c1F [Compound A196, (S)-3-((R)-7-((7-(2-fluoro-4-((1S,2S)-6-hydroxy-2-phenyl-1,2,3,4-tetrahydronaphthalen-1-yl)-3-methoxyphenyl)-7-aza-spiro[3.5]nonan-2-yl)methyl)-1-oxo-1,3,5,5a,6,7,8,9-octa-hydro-2H-pyrazino[1′,2′:4,5] [1,4]oxazino[2,3-e]isoindol-2-yl)piperidine-2,6-dione]	–	< 1 nM	< 10 nM
–	COc1cc(N2CCC3(CC[C@H](CN4CCC5(CC4)COc4c5cc(C)c5c4CN([C@H]4CCC(=O)NC4=O)C5=O)CO3)CC2)c(F)cc1[C@@H]1c2ccc(O)cc2CC[C@@H]1c1ccccc1 [Compound A230, (S)-3-(1′-(((R)-9-(2-fluoro-4-((1S,2S)-6-hydroxy-2-phenyl-1,2,3,4-tetrahydronaphthalen-1-yl)-5-methoxyphenyl)-1-oxa-9-azaspiro[5.5]undecan-3-yl)methyl)-5-methyl-6-oxo-6,8-dihydro-2H,7H-spiro[furo[2,3-e]isoindole-3,4′-piperidin]-7-yl)piperidine-2,6-dione]	> 75%	< 1 nM	< 10 nM

Source: patent US20260028354A1, “TETRAHYDRONAPHTHALENE DERIVATIVES AS ESTROGEN RECEPTOR DEGRADERS” (REGENT OF THE UNIVERSITY OF MICHIGAN, priority 2022, published 2026)
